Test results reported in ChEMBL document CHEMBL2331155, “Polycyclic hybrid isoprenoids from a reed rhizosphere soil derived Streptomyces sp. CHQ-64” (J Nat Prod, 2013).
pIC50: −log10 of the molar value. Values belong to the compound of their own block, whether it stands above or below them. The source made the active and inactive calls. The calls are words filed in the database; no cut-off is given here.

Assays:
HCT-8 = test: Cytotoxicity against human HCT8 cells by MTT assay; format: functional, cell-based
BGC-823 = test: Cytotoxicity against human BGC823 cells by MTT assay; format: functional, cell-based
[1] = target: T1, DNA topoisomerase 1 (Homo sapiens) (UniProt P11387); test: Binding affinity to topoisomerase 1 (unknown origin)
T1 sequence (whole entry): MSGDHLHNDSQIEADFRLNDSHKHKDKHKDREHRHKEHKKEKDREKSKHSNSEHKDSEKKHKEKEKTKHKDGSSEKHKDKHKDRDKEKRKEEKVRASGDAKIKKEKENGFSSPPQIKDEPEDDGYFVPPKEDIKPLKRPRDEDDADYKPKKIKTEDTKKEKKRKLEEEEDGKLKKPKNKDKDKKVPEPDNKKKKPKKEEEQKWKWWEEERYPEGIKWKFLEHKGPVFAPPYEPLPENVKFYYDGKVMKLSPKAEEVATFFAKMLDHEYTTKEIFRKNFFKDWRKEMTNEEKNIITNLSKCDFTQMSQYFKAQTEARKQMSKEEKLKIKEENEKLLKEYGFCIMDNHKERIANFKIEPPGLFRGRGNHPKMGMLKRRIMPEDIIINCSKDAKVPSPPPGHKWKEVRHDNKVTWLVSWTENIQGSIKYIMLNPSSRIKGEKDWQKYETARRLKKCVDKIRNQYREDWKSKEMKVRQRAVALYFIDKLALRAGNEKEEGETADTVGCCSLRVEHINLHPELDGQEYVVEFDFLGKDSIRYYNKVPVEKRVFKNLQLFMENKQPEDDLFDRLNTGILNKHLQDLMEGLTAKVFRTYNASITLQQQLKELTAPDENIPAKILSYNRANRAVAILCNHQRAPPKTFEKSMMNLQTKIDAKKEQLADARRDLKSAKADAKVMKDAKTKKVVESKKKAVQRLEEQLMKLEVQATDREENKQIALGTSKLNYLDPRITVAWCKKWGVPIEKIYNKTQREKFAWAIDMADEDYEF

Homo sapiens = organism: Homo sapiens; test: Inhibition of NF-kappaB (unknown origin) expressed in LPS-stimulated Raw 264.7 cells pretreated for 2 hrs measured after 4 hrs of LPS-challenge by luciferase reporter assay; format: cell-based
Bel-7402 = test: Cytotoxicity against human Bel7402 cells by MTT assay; format: functional, cell-based
A2780 = test: Cytotoxicity against human A2780 cells by MTT assay; format: functional, cell-based
A549 = test: Cytotoxicity against human A549 cells by MTT assay; format: functional, cell-based
[2] = target: Protein kinase C alpha type (Homo sapiens) (UniProt P17252); test: Binding affinity to PKC alpha (unknown origin)

Activity [1]: inactive
Activity [2]: inactive
Compound: CC(C)[C@H]1C(=O)N[C@@H](C[C@]23C[C@H]4C(=C[C@H]2N(C=O)c2ccccc23)CC[C@H]2C(C)(C)CCC[C@]42C)C(=O)N1C (mixture of isomers) [INDOTERTINE B]
pIC50 (HCT-8): 5.16
pIC50 (BGC-823): < 5.00
inhibition (Homo sapiens): inactive
pIC50 (Bel-7402): < 5.00
pIC50 (A2780): < 5.00
pIC50 (A549): 5.31

Compound: C=C1CC[C@H]2C(C)(C)CCC[C@]2(C)[C@H]1C[C@@]12C[C@H]3C(=O)N4CCC[C@H]4C(=O)N3[C@@H]1Nc1ccccc12 [DRIMENTINE C]
pIC50 (HCT-8): < 5.00
pIC50 (BGC-823): < 5.00
Activity [1]: inactive
inhibition (Homo sapiens): inactive
pIC50 (Bel-7402): < 5.00
pIC50 (A2780): < 5.00
pIC50 (A549): < 5.00
Activity [2]: inactive

Activity [1]: inactive
Activity [2]: inactive
Compound: C=C1CC[C@H]2C(C)(C)CCC[C@]2(C)[C@H]1C[C@@]12C[C@H]3C(=O)N(C)[C@@H](C(C)C)C(=O)N3[C@@H]1N(C=O)c1ccccc12 [DRIMENTINE H]
pIC50 (HCT-8): < 5.00
pIC50 (BGC-823): < 5.00
inhibition (Homo sapiens): inactive
pIC50 (Bel-7402): < 5.00
pIC50 (A2780): < 5.00
pIC50 (A549): < 5.00

Compound: CC(=O)O[C@H]1C(=O)[C@@]2(C)[C@H]([C@H](OC(=O)c3ccccc3)[C@]3(O)C[C@H](OC(=O)[C@H](O)[C@@H](NC(=O)c4ccccc4)c4ccccc4)C(C)=C1C3(C)C)[C@]1(OC(C)=O)CO[C@@H]1C[C@@H]2O [PACLITAXEL]
pIC50 (BGC-823): > 9.00
pIC50 (Bel-7402): 8.22
pIC50 (A2780): > 9.00
